We go through two compounds from patent publication US12066428B2, “Cell-substrate impedance monitoring of cancer cells” (Agilent Technologies, Inc., priority 2016, dated 2024).

Common to all, as to type: cell-based, human
Assay [1] deals with A549 cells. Description: RT-CES dynamic monitoring of drug interaction with target cells. To be noted: A549, highest concentration; cells later recover and re-proliferate. The protocol: Drug Treatment and Cytotoxicity Assessment.
In order to observe the kinetics of drug interaction with target cells, A549 non-small lung cancer cells were seeded in ACEA 96× E-plate™ and continuously monitored until the cells reached the log growth phase at which point different concentrations of paclitaxel were added to the cells at the indicated final concentration. […] While it remains to be determined if this phenomenon is due to metabolism and inactivation of paclitaxel or due to the emergence of paclitaxel-resistant subpopulation, this experiment clearly exemplifies the tremendous advantage of real-time measurement which is offered by the RT-CES system and allows the user to the opportunity to observe and assess the entire history of drug interaction with the target cells which provides further information in addition to cell viability or cytotoxicity. The phenomenon observed in FIG. 20A would've been easily missed by traditional single-point assays such as MTT.
Yet another major advantage of using the RT-CES system to continually monitor the interaction of drugs with target cells is that the user can obtain insight into the mechanism of action of the drug of interest. […]

For assay [2], the system named is H460 cells. Description: Time-dependent cell index of drug-treated cells (cell-substrate impedance).
Experimental: The device was positioned on a device station that was located in an incubator maintaining conditions of 37° C. and 5% CO2. The cells were cultured and treated at their exponential growth phase with different concentrations of paclitaxel. The dynamic response of the cells to different doses of paclitaxel was monitored by monitoring cell-substrate impedance in real time every 15 minutes for 50 hours after treatment using a cell-substrate impedance monitoring system. The cell-substrate impedance monitoring system calculated the cell index at each time point monitored and plotted the cell index as a function of time.
The device was positioned on a device station that was located in an incubator maintaining conditions of 37 degrees C. and 5% CO2.
The subject of assay [3] is A549 cells. Description: A549 target cells incubated with inhibitors alone (RT-CES control). As to conditions: A549 target cells without NK-92. The source says:
Inhibition of NK-mediated cytolysis of target cells by agents which block the signaling pathways leading to cytotoxicity. The interaction of NK receptors at the cell membrane by target cells leads to the activation of signal transduction machinery which results in cytolysis of target cells (Vivier et al., 2004). One of the key signaling cascades which regulate the fusion of perforin and granzyme containing secretory granules at the NK/target cell synaptic junction is the phosphatidyl-inositol-3-kinase (PI3K), Rac and mitogen activated protein kinase 1 (Erk) pathway (Djeu et al., 2002; Vivier et al., 2004). In order to determine the specificity of the signaling pathways in regulating NK-mediated cytotoxicity, we therefore sought to utilize specific inhibitors of the PI3K and Erk pathways. NK-92 cells were incubated with both the PI3K inhibitor Wortmannin and the Erk pathway inhibitor PD98059 or DMSO as a control and then added to A549 target cells. […] We calculated percent inhibition of cytolysis for both inhibitors at different time points after NK addition. […] In summary, the experiments shown here clearly establish that the RT-CES system can be used to monitor NK-mediated cytotoxic activity against a variety of different cell lines.

For assay [4], the system named is NK-92-mediated cytolysis of A549 cells. Description: Inhibition of NK-92-mediated cytolysis by signaling pathway inhibitors (RT-CES). To be noted: NK-92 pre-incubated with inhibitor, E/T 16:1. The protocol:
Cytolytic analysis. Target cells were seeded into the wells of either 16-well or 96-well E-plate in 100 μL of media. Cell growth was dynamically monitored using the RT-CES system for a period of 24-34 hours, depending on the experiment until they reached log growth phase and formed a monolayer. Effector cells at different concentrations were then directly added into individual wells containing the target cells. For background control, effector cells were added to a well without target cells. After addition of the effector cells, the E-plate was returned to the e-plate station and the measurements were automatically collected by the analyzer every 15 minutes for up to 20 hours.
Data analysis. The integrated software is able to display entire history of the experiment from seeding the cells to termination of cytolysis. […] The cell index here is determined by calculating, for each measurement frequency f, the relative-change (Relative change (f)=(Rcell (f)−Rbackground(f))/Rbackground(f)) in resistance (a component of impedance) of a well when target cells are present in the well (Rcell (f)) with respect to background resistance (Rbackground) of the well when no cell is present and only cell culture medium is in the well, and then finding the maximum relative-change in resistance for all frequencies measured (Cell Index=max {Relative change (f)} for all measurement frequencies). […]

Turning to `CC(=O)O[C@H]1C(=O)[C@@]2(C)[C@H]([C@H](OC(=O)c3ccccc3)[C@]3(O)C[C@H](OC(=O)[C@H](O)[C@@H](NC(=O)c4ccccc4)c4ccccc4)C(C)=C1C3(C)C)[C@]1(OC(C)=O)CO[C@@H]1C[C@@H]2O` [paclitaxel], the “effect on A549 cells (Cell Index trace)” value in assay [1] is “initially induces a cytotoxic effect”. For the same compound, the “time over which cell index exhibited a near-constant value” in assay [2] (H460, 33 nanomolar) is “about 15 hours”. Besides, the “cell index response after compound addition” value in assay [2] (H460, concentrations between 67 nanomolar and 500 nanomolar) is “gradual decrease in cell index after compound addition”.

Regarding `COc1cccc(-c2cc(=O)c3ccccc3o2)c1N` [PD98059], in assay [3], the “effect of inhibitor alone on A549 baseline” value is listed as “minimal effect on the baseline”. Besides, in assay [4], the “effect on NK-92-mediated cytolysis of A549 cells” value is reported as “dose-dependently inhibited”.
